Laboratory results reported in PubChem BioAssay (NCI).
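Growth conditions: 96-well plates. Treatment: test compound, 48 hours, 5 concentrations. Analysis: linear interpolation between bracketing concentrations; unreached endpoints set to highest concentration. The concentration for full growth arrest is given as TGI.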

Assays:
Experiment in all cases: NCI anticancer screen, dose series, 48 h
HL-60(TB) leukemia = test system: HL-60(TB) leukemia
HCT-116 colon = test system: HCT-116 colon
SN12C renal = test system: SN12C renal
A498 renal = test system: A498 renal
MDA-N = test system: MDA-N
NCI-H522 lung = test system: NCI-H522 lung
T-47D breast = test system: T-47D breast
BT-549 breast = test system: BT-549 breast
ACHN renal = test system: ACHN renal
K-562 leukemia = test system: K-562 leukemia
OVCAR-5 ovarian = test system: OVCAR-5 ovarian
KM12 colon = test system: KM12 colon
OVCAR-8 ovarian = test system: OVCAR-8 ovarian
DU-145 prostate = test system: DU-145 prostate
SW-620 colon = test system: SW-620 colon
HOP-62 NSCLC = test system: HOP-62 NSCLC
SF-539 CNS = test system: SF-539 CNS
COLO 205 colon = test system: COLO 205 colon
NCI-H226 lung = test system: NCI-H226 lung
CCRF-CEM leukemia = test system: CCRF-CEM leukemia
HCC-2998 colon = test system: HCC-2998 colon
NCI-H23 lung = test system: NCI-H23 lung
SF-268 CNS = test system: SF-268 CNS
LOX IMVI melanoma = test system: LOX IMVI melanoma
MALME-3M melanoma = test system: MALME-3M melanoma
SK-MEL-28 melanoma = test system: SK-MEL-28 melanoma
EKVX NSCLC = test system: EKVX NSCLC
NCI/ADR-RES ovarian = test system: NCI/ADR-RES ovarian
RPMI-8226 leukemia = test system: RPMI-8226 leukemia
HS 578T breast = test system: HS 578T breast
M14 melanoma = test system: M14 melanoma
A549 NSCLC = test system: A549 NSCLC
HOP-92 NSCLC = test system: HOP-92 NSCLC
MDA-MB-435 = test system: MDA-MB-435
PC-3 prostate = test system: PC-3 prostate
UACC-62 melanoma = test system: UACC-62 melanoma
U251 CNS = test system: U251 CNS
SK-MEL-2 melanoma = test system: SK-MEL-2 melanoma
TK-10 renal = test system: TK-10 renal
SR leukemia = test system: SR leukemia
CAKI-1 renal = test system: CAKI-1 renal
IGROV1 ovarian = test system: IGROV1 ovarian
NCI-H460 lung = test system: NCI-H460 lung
786-0 renal = test system: 786-0 renal
OVCAR-4 ovarian = test system: OVCAR-4 ovarian
MCF7 breast = test system: MCF7 breast
HT29 colon = test system: HT29 colon
SNB-75 CNS = test system: SNB-75 CNS
HCT-15 colon = test system: HCT-15 colon
SK-OV-3 ovarian = test system: SK-OV-3 ovarian
UACC-257 melanoma = test system: UACC-257 melanoma
MOLT-4 leukemia = test system: MOLT-4 leukemia
RXF 393 renal = test system: RXF 393 renal
OVCAR-3 ovarian = test system: OVCAR-3 ovarian
SK-MEL-5 melanoma = test system: SK-MEL-5 melanoma
MDA-MB-231 breast = test system: MDA-MB-231 breast
UO-31 renal = test system: UO-31 renal
SF-295 CNS = test system: SF-295 CNS
SNB-19 CNS = test system: SNB-19 CNS

CCOC(=O)Cn1c(=O)c2cc(-c3ccccc3)cc3c(Cl)nc4c(OC)c(OC)cc1c4c32
TGI (HL-60(TB) leukemia): 27.4 µM
TGI (HCT-116 colon): 29.1 µM
TGI (SN12C renal): > 100 µM
TGI (A498 renal): 59.6 µM
TGI (MDA-N): 43.2 µM
TGI (NCI-H522 lung): 39.4 µM
TGI (T-47D breast): > 100 µM
TGI (BT-549 breast): 38.3 µM
TGI (ACHN renal): > 65.5 µM
TGI (K-562 leukemia): > 55 µM
TGI (OVCAR-5 ovarian): > 100 µM
TGI (KM12 colon): > 92.8 µM
TGI (OVCAR-8 ovarian): 44.4 µM
TGI (DU-145 prostate): > 61 µM
TGI (SW-620 colon): > 61.2 µM
TGI (HOP-62 NSCLC): > 100 µM
TGI (SF-539 CNS): > 100 µM
TGI (COLO 205 colon): > 100 µM
TGI (NCI-H226 lung): > 100 µM
TGI (CCRF-CEM leukemia): > 56.9 µM
TGI (HCC-2998 colon): 34.5 µM
TGI (NCI-H23 lung): 36.2 µM
TGI (SF-268 CNS): 29.2 µM
TGI (LOX IMVI melanoma): 26.4 µM
TGI (MALME-3M melanoma): 22 µM
TGI (SK-MEL-28 melanoma): 55.4 µM
TGI (EKVX NSCLC): > 59.2 µM
TGI (NCI/ADR-RES ovarian): 56.5 µM
TGI (RPMI-8226 leukemia): 46.8 µM
TGI (HS 578T breast): > 27.7 µM
TGI (M14 melanoma): 32.9 µM
TGI (A549 NSCLC): > 100 µM
TGI (HOP-92 NSCLC): 54.6 µM
TGI (MDA-MB-435): 38.3 µM
TGI (PC-3 prostate): 55.4 µM
TGI (UACC-62 melanoma): 30.4 µM
TGI (U251 CNS): > 100 µM
TGI (SK-MEL-2 melanoma): 35.4 µM
TGI (TK-10 renal): 99.4 µM
TGI (SR leukemia): > 100 µM
TGI (CAKI-1 renal): > 100 µM
TGI (IGROV1 ovarian): 27.5 µM
TGI (NCI-H460 lung): 39.1 µM
TGI (786-0 renal): > 100 µM
TGI (OVCAR-4 ovarian): > 77.1 µM
TGI (MCF7 breast): 22.7 µM
TGI (HT29 colon): 48.1 µM
TGI (SNB-75 CNS): 49.6 µM
TGI (HCT-15 colon): 32.2 µM
TGI (SK-OV-3 ovarian): > 100 µM
TGI (UACC-257 melanoma): 38.9 µM
TGI (MOLT-4 leukemia): 14.2 µM
TGI (RXF 393 renal): 30.7 µM
TGI (OVCAR-3 ovarian): 60.1 µM
TGI (SK-MEL-5 melanoma): > 59.9 µM
TGI (MDA-MB-231 breast): > 100 µM
TGI (UO-31 renal): 43.8 µM
TGI (SF-295 CNS): > 100 µM
TGI (SNB-19 CNS): 55 µM

Cc1cc(=O)oc2cc(OS(C)(=O)=O)ccc12
TGI (HL-60(TB) leukemia): > 100 µM
TGI (HCT-116 colon): > 100 µM
TGI (SN12C renal): > 100 µM
TGI (A498 renal): > 100 µM
TGI (MDA-N): > 100 µM
TGI (NCI-H522 lung): > 100 µM
TGI (T-47D breast): > 100 µM
TGI (BT-549 breast): > 100 µM
TGI (ACHN renal): > 100 µM
TGI (K-562 leukemia): > 100 µM
TGI (OVCAR-5 ovarian): > 100 µM
TGI (OVCAR-8 ovarian): > 100 µM
TGI (DU-145 prostate): > 100 µM
TGI (SW-620 colon): > 100 µM
TGI (HOP-62 NSCLC): > 100 µM
TGI (SF-539 CNS): > 100 µM
TGI (COLO 205 colon): > 100 µM
TGI (NCI-H226 lung): > 100 µM
TGI (CCRF-CEM leukemia): > 100 µM
TGI (HCC-2998 colon): > 100 µM
TGI (NCI-H23 lung): > 100 µM
TGI (SF-268 CNS): > 100 µM
TGI (LOX IMVI melanoma): > 100 µM
TGI (MALME-3M melanoma): > 100 µM
TGI (SK-MEL-28 melanoma): > 100 µM
TGI (EKVX NSCLC): > 100 µM
TGI (NCI/ADR-RES ovarian): > 100 µM
TGI (RPMI-8226 leukemia): > 100 µM
TGI (HS 578T breast): > 100 µM
TGI (M14 melanoma): > 100 µM
TGI (A549 NSCLC): > 100 µM
TGI (HOP-92 NSCLC): > 100 µM
TGI (MDA-MB-435): > 100 µM
TGI (PC-3 prostate): > 100 µM
TGI (UACC-62 melanoma): > 100 µM
TGI (U251 CNS): > 100 µM
TGI (SK-MEL-2 melanoma): > 100 µM
TGI (TK-10 renal): > 100 µM
TGI (SR leukemia): > 100 µM
TGI (CAKI-1 renal): > 100 µM
TGI (IGROV1 ovarian): > 100 µM
TGI (NCI-H460 lung): > 100 µM
TGI (786-0 renal): > 100 µM
TGI (OVCAR-4 ovarian): > 100 µM
TGI (MCF7 breast): > 100 µM
TGI (HT29 colon): > 100 µM
TGI (SNB-75 CNS): > 100 µM
TGI (HCT-15 colon): > 100 µM
TGI (UACC-257 melanoma): > 100 µM
TGI (RXF 393 renal): > 100 µM
TGI (OVCAR-3 ovarian): > 100 µM
TGI (SK-MEL-5 melanoma): > 100 µM
TGI (MDA-MB-231 breast): > 100 µM
TGI (SF-295 CNS): > 100 µM
TGI (SNB-19 CNS): > 100 µM

Cc1cc(N(CCCl)CCCl)ccc1/C=N/NC(=O)Cc1cc(=O)oc2cc(O)ccc12
TGI (HL-60(TB) leukemia): 33.5 µM
TGI (HCT-116 colon): 40.5 µM
TGI (SN12C renal): 38.2 µM
TGI (A498 renal): 45.3 µM
TGI (MDA-N): 32.4 µM
TGI (NCI-H522 lung): 31.5 µM
TGI (T-47D breast): 56.9 µM
TGI (BT-549 breast): 34.7 µM
TGI (ACHN renal): 40.3 µM
TGI (K-562 leukemia): 66.1 µM
TGI (OVCAR-5 ovarian): 93.7 µM
TGI (KM12 colon): 36.6 µM
TGI (OVCAR-8 ovarian): > 100 µM
TGI (DU-145 prostate): > 100 µM
TGI (SW-620 colon): 66.9 µM
TGI (HOP-62 NSCLC): 39.7 µM
TGI (SF-539 CNS): 40.7 µM
TGI (COLO 205 colon): 36.7 µM
TGI (NCI-H226 lung): 43.2 µM
TGI (CCRF-CEM leukemia): 46 µM
TGI (HCC-2998 colon): 72 µM
TGI (NCI-H23 lung): 58.6 µM
TGI (SF-268 CNS): 56.4 µM
TGI (LOX IMVI melanoma): 26.7 µM
TGI (MALME-3M melanoma): 27.7 µM
TGI (SK-MEL-28 melanoma): 41.9 µM
TGI (EKVX NSCLC): 82.9 µM
TGI (NCI/ADR-RES ovarian): > 100 µM
TGI (RPMI-8226 leukemia): 57.5 µM
TGI (HS 578T breast): 56.3 µM
TGI (M14 melanoma): 35.1 µM
TGI (A549 NSCLC): 42.2 µM
TGI (HOP-92 NSCLC): > 100 µM
TGI (MDA-MB-435): 38.5 µM
TGI (PC-3 prostate): 27.5 µM
TGI (UACC-62 melanoma): 13.2 µM
TGI (U251 CNS): 43.4 µM
TGI (SK-MEL-2 melanoma): > 100 µM
TGI (SR leukemia): > 100 µM
TGI (CAKI-1 renal): 26.3 µM
TGI (IGROV1 ovarian): 40.7 µM
TGI (NCI-H460 lung): 30.5 µM
TGI (786-0 renal): 59.7 µM
TGI (OVCAR-4 ovarian): > 100 µM
TGI (MCF7 breast): 20.4 µM
TGI (HT29 colon): 31.2 µM
TGI (SNB-75 CNS): > 100 µM
TGI (HCT-15 colon): > 100 µM
TGI (UACC-257 melanoma): 58.1 µM
TGI (MOLT-4 leukemia): 50.4 µM
TGI (RXF 393 renal): 44.3 µM
TGI (OVCAR-3 ovarian): 72.8 µM
TGI (SK-MEL-5 melanoma): 21.1 µM
TGI (MDA-MB-231 breast): 86.8 µM
TGI (UO-31 renal): 47.2 µM
TGI (SF-295 CNS): 50.8 µM
TGI (SNB-19 CNS): 41 µM
